No end group written: not given here. *: point of attachment. Biotin = O=C1N[C@H]2[C@H](CS[C@H]2CCCCC(=O)*)N1
Key:
Format in all cases: binding, human
[1] = tested on: WW domains of WWP1 expressed as GST fusion proteins; assay: ELISA based cross affinity mapping, WW domains of WWP1; settings: biotinylated peptide-streptavidin/alkaline phosphatase complex; GST fusion proteins; ELISA
Protocol: (§1) The 16 day mouse embryo cDNA expression library was diluted 1:1000 in SM solution (100 mM NaCl, 8 mM MgSOv4, 50 mM Tris HCl pH 7.5, 0.01% gelatin). To a sterile test tube, 2 μl of diluted mouse embryo library, 100 μl of 10 mM CaCl2, 100 μl of 10 mM MgCl2 and 100 μl of BL21(DE3)pLysE bacterial cells (grown overnight) were added and incubated for 30 minutes at 37° C. The contents of the tube were mixed with 3 ml of 0.6% top agarose, containing […] chloramphenicol, and poured onto a 2xYT plate (90 mm diameter). For a large primary screen, 10–20 plates were prepared with 3×10^4 pfu per plate. After 6 hours incubation at 37° C., a nitrocellulose filter soaked in 10 mM isopropyl-β-D-thiogalactopyranoside (IPTG) was overlaid on each plate and incubated 3–6 hours at 37° C. Before the filters were removed from the plates, they were marked asymmetrically with India ink in a 18 gauge syringe needle. The plates were stored at 4° C. until ready for the secondary screen. The filters were washed with PBS (137 mM NaCl, 2.7 mM KCl, 4.3 mM Na2HPO4, 1.4 mM KH2PO4)-0.05% Triton X-100 three times at room temperature, 15 minutes each wash, and then placed in a plastic bag containing non-specific blocking solution (PBS-2% BSA) for one hour. In the meantime, 1 ml of 1 mM biotinylated peptide in PBS-0.1% Tween 20 was added to 20 ml of 1 mg/ml streptavidin-alkaline phosphatase (SA-AP) in PBS-0.1% Tween 20 and incubated at 4° C. for 30 minutes. […] Excess biotin-binding sites would then be blocked by addition of 500 pmol biotin. […] Ten μl of 0.1 mM biotin would then be added, and the solution incubated for an additional 15 min.
(§2) To determine the ligand preferences of the novel WW omain-containing clones described in Sections 6.1 and 6.1.1, as well as addressing the issue of whether peptides containing PPPPY (SEQ ID NO:3)-like motifs derived from a variety of proteins could also serve as recognition units and bind to these clones, a cross affinity mapping experiment was performed (FIGS. 15A–D). The peptides shown in FIGS. 15A–D were synthesized, biotinylated, complexed with streptavidin-alkaline phosphatase, and tested in an ELISA based assay for their ability to bind to the twelve individual novel WW domains of WWP1, WWP2, WWP3 and WWP4 which were expressed as GST fusion proteins. The ELISA based cross-affinity experiments were performed essentially as described by Sparks et al. (1996, Proc. Natl. Acad. Sci. 93:1540–1544) with the following modifications. Briefly, microtiter wells were coated with 1–5 μg of fusion protein in 100 mM NaHCO3, blocked with SuperBlock TBS (Pierce) and washed four times with PBS, 0.05% Tween 20. Specific peptide-streptavidin/alkaline phosphatase complexes were added as above and unbound complexes washed five times with PBS, 0.05% Tween 20. Following addition of PNP substrate (p-nitrophenyl phosphate, Kirkegard & Perry Labs), peptide binding was quantitated after 30 min. at O.D. 405 nm. Relative binding measurements from three independent determinations were assigned to a scale as follows: O.D. units 0–0.5=(−), 0.5–1.0=(+), 1.0–2.0=(++), 2.0–3.0=(+++), >3.0=(++++). Peptide binding to human Fyn and Lyn SH3 and SH2 domains was assessed by a filter binding assay (see Section 6.1 and Sparks et al., 1996, Proc. Natl. Acad. Sci 93:1540–1544). Peptide sequences used in cross-affinity experiments correspond to segments of the following genes: RasGap (Database accession # P20936), AP-2 (P05549), p53BP-2 (U09582), IL-6Rα (P22272), voltage-gated chloride channel CLCN5 (X91906), IL-2Rγ (D111086), RSV (D10652), HTLV-1 (D13784), β-dystroglycan (L19711), Formin (X53599), amiloride-sensitive epithelial Na^+ channel ENaCα (P37089), ENaCβ (X87159) and ENaCγ (X87160), muscarinic acetylcholine receptor M4 AChR (P08173), and c-Abl (P00522). Src and Crk SH3 binding peptide sequences were derived from a phage display random peptide library screen (Section 6.1 and Sparks et al., 1996, Proc. Natl. Acad. Sci. 93:1540–1544).

[2] = tested on: WW domains of WWP4 expressed as GST fusion proteins; assay: ELISA based cross affinity mapping, WW domains of WWP4; settings: biotinylated peptide-streptavidin/alkaline phosphatase complex; GST fusion proteins; ELISA
Protocol: as §1, §2

[3] = tested on: twelve individual novel WW domains of WWP1, WWP2, WWP3 and WWP4; assay: ELISA based cross affinity mapping, whole panel of novel WW domains; settings: biotinylated peptide-streptavidin/alkaline phosphatase complex, GST fusion proteins
Protocol: as §1, §2

Substance | binding to WW domains of WWP1 [1] | binding to WW domains of WWP4 [2] | binding to the novel WW domains (WWP1, WWP2, WWP3, WWP4 panel) [3]
Biotin-SGSGPGTPPPPYTVGPGY [WBP-1] | specifically bind | specifically bind | bound to several individual WW domains to varying degrees
Biotin-SGSGPGTPYPPPPEFY [WBP-2B] | none of the WW domains of these proteins specifically bind | none of the WW domains of these proteins specifically bind | no binding activity
Biotin-SGSGYVQPPPPPYPGPM [WBP-2A] | specifically bind | specifically bind | bound to several individual WW domains to varying degrees

Reference: patent US7279548B2, “Identification and isolation of novel polypeptides having WW domains and methods of using same” (Cytogen Corporation, priority 1996, dated 2007)
